For 20 compounds, inhibition results are on record in ChEMBL document CHEMBL1135708, “Synthesis of 1-(3,4-dihydroxy-5-nitrophenyl)-2-phenyl-ethanone and derivatives as potent and long-acting peripheral inhibitors of catechol-O-methyltransferase” (J Med Chem, 2002).

Each structure is given as a SMILES string.

Assay [1] addresses T1, Catechol O-methyltransferase (Rattus norvegicus) (UniProt P22734).
T1 sequence (whole entry): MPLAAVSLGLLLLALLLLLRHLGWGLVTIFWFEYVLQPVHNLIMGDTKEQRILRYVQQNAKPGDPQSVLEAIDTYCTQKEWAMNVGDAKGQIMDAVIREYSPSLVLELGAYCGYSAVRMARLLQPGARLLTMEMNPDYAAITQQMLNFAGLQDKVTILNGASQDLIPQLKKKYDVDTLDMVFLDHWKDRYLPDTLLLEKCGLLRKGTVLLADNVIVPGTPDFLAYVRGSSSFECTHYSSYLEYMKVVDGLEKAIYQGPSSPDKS
Kind of assay: Percent inhibition of Catechol O-methyltransferase activity in rat brain at dose of 30 mg/kg determined at 6 h after its administration. Also on record: dose 30 mg/kg. The format is organism-based.

Assay [2] addresses T1, Catechol O-methyltransferase (Rattus norvegicus). Kind of assay: Percent inhibition of Catechol O-methyltransferase activity in rat liver at dose of 30 mg/kg determined at 6 hr after its administration. Format: organism-based. Also on record: dose 30 mg/kg.

In the case of `COc1ccc(CC(=O)c2cc(OC(C)=O)c(OC(C)=O)c([N+](=O)[O-])c2)cc1`, the inhibition in assay [1] was determined as 25%; in assay [2] it was 72%.
The corresponding values for `CC(=O)Oc1cc(C(=O)C(Cc2ccccc2)c2ccccc2)cc([N+](=O)[O-])c1OC(C)=O` (stereo not given) are 44% and 63%.
For the compound `CC(=O)Oc1cc(C(=O)C2(c3ccccc3)CCCCC2)cc([N+](=O)[O-])c1OC(C)=O`, the inhibition in assay [1] was determined as 19%; in assay [2] it was 14%.
For `CC(=O)Oc1cc(C(=O)C(Br)c2ccccc2)cc([N+](=O)[O-])c1OC(C)=O` (stereo not given), the inhibition in assay [1] was 20%; in assay [2], 48%.
With `CC(=O)Oc1cc(C(=O)C(C)c2ccccc2)cc([N+](=O)[O-])c1OC(C)=O` (stereo not given), the inhibition in assay [1] turned out to be 44%; in assay [2], 42%.
The corresponding values for `CC(=O)Oc1cc(C(=O)Cc2ccc([N+](=O)[O-])cc2)cc([N+](=O)[O-])c1OC(C)=O` are 0% and 49%.
On to `O=C(c1cc(O)c(O)c([N+](=O)[O-])c1)C(c1ccccc1)c1ccccc1`, for which the inhibition is 7% in assay [1] and 13% in assay [2].
For `O=C(CC1CCCCC1)c1cc(O)c(O)c([N+](=O)[O-])c1`, the inhibition stood at 39% in assay [1] and 72% in assay [2].
Consider `O=[N+]([O-])c1cc(/C(Cc2ccccc2)=N\O)cc(O)c1O`, for which the values for the inhibition in assay [1] and in assay [2] were 13% and 48%, respectively.
Take `CC(=O)Oc1cc(C(=O)C(C)(C)c2ccccc2)cc([N+](=O)[O-])c1OC(C)=O`: the inhibition in assay [1] turned out to be 23%; in assay [2] it was 19%.
Regarding `Cc1ccc(CC(=O)c2cc(O)c(O)c([N+](=O)[O-])c2)cc1`, the inhibition stood at 23% in assay [1] and 83% in assay [2].
As to `O=C(Cc1ccc(-c2ccccc2)cc1)c1cc(O)c(O)c([N+](=O)[O-])c1`, the inhibition in assay [1] came to 28%; in assay [2], 78%.
Take `Cc1ccccc1CC(=O)c1cc(O)c(O)c([N+](=O)[O-])c1`: the inhibition was 33% in assay [1] and 74% in assay [2].
Turning to `CC(=O)Oc1cc(C(=O)Cc2ccccc2[N+](=O)[O-])cc([N+](=O)[O-])c1OC(C)=O`, the inhibition came to 20% in assay [1] and 28% in assay [2].
For the compound `O=C(Cc1ccccc1C(=O)O)c1cc(O)c(O)c([N+](=O)[O-])c1`, the inhibition in assay [1] stood at 34%; in assay [2] it was 39%.
Take `O=c1oc(-c2cc(O)c(O)c([N+](=O)[O-])c2)cc2ccccc12`: the inhibition was found to be 29% in assay [1] and 15% in assay [2].
Take `O=C(Cc1ccc2ccccc2c1)c1cc(O)c(O)c([N+](=O)[O-])c1`: the inhibition in assay [1] was found to be 17%; in assay [2], 83%.
As to `O=C(Cc1ccc(Cl)cc1)c1cc(O)c(O)c([N+](=O)[O-])c1`, the inhibition in assay [1] was 12%; in assay [2] it was 69%.
As for `O=C(Cc1cccc2ccccc12)c1cc(O)c(O)c([N+](=O)[O-])c1`, the inhibition in assay [1] came out at 10%; in assay [2] it was 70%.
The corresponding values for `O=[N+]([O-])c1cc(CCc2ccccc2)cc(O)c1O` are 10% and 0%.

What is called inhibition is the relative decrease from the control value, in per cent. Higher therefore signals strong suppression.
